Experimental data as given in patent publication US20250213587A1, “ITK INHIBITORS FOR INCREASING TH1 CELL ACTIVITY” (Corvus Pharmaceuticals, Inc., priority 2022, published 2025).
Entries after “also recorded” stand apart in the source; their conditions may differ.

Columns and labels:
Cys442Ala ITK = Cys442Ala ITK (Homo sapiens, UniProt Q08881, C442A); experiment: Inhibition of Cys442Ala ITK mutant; type: biochemical; conditions: similar conditions
Procedure: Two biochemical assays of kinase activity were employed. […] In the Lanthascreen assay each kinase (1.0 nM) was incubated with compound for 120 minutes at 22° C. in a buffer composed of 50 mM HEPES (pH 7.5), 10 mM MgCl2, 1 mM EGTA, and 0.01% Brij 35. The kinase reaction was initiated by the addition of ATP (50 μM final) and fluorescein-poly-Glu-Tyr peptide (200 nM final). The reaction was quenched after 60 minutes at 22° C., and phospho-peptide product detected by the addition of EDTA (10 mM final) and terbium PY20 antibody (2 nM final). The phospho-peptide product was measured by time-resolved fluorescence resonance energy transfer (TR FRET) between the terbium of the antibody and fluorescein of the phospho-peptide using an EnVision plate reader (PerkinElmer, Waltham, MA) equipped to detect the TR-FRET signal (excitation 320 nm, dual emission at 495 nm and 520 nm). All reagents including recombinant human kinases, fluorescein-poly-Glu-Tyr peptide, terbium PY20 antibody, and kinase buffer A were purchased from Invitrogen.
Inhibition of kinase activity was measured by construction of a concentration response curve of the inhibitor. […] The response reading was normalized according to equation 1 and plotted against the Log base 10 transformed values of the molar concentration of inhibitor. The IC50 value was obtained by fitting equation 2 to the data. […]

Lck = Lck (Homo sapiens, UniProt P06239); experiment: Human kinome profiling at 1.0 μM, Lck; type: biochemical; conditions: read-out: percent control, Lck
[1] = tested on: IFNγ production by CD4+ T cells; experiment: T cell activation, IFNγ+CD4+ T cells; type: cell-based, human
Procedure: Fresh PBMCs from healthy human donors were centrifuged and reconstituted at 0.312×10^6 cells/mL in RPMI 1640 medium+10% heat-inactivated FBS+1× penicillin streptomycin and 100,000 cells/well were distributed into 24 well tissue culture plate. Cells were incubated at 37° C. for 1 hour, followed by the addition of CPI 596 or vehicle. The cells were then incubated at 37° C. for 1 hour, followed by the addition of […] anti CD3 and anti CD28 (both eBioscience). Cells were incubated at 37° C. for 6 days, with supplemental media supplied on day 3. On Day 6, the cells were transferred to a 96 deep well plate, washed, and treated with 50 nM phorbol 12-myristate 13-acetate, 1 μg/mL ionomycin, and 1 μg/mL brefeldin A, and then incubated at 37° C. for 4 hours. The cells were then fixed and permeabilized using eBioscience Fox3/transcription factor staining buffer. Cells were treated with Fc block (BioLegend) and then stained with CD3 BV605, CD45RA PerCP-Cy5.5, Tbet PE, IFNγ AF488, IL-4 APC (BioLegend), CD4 PE-Cy7, cPARP AF700 (BD Biosciences), and CD8 Krome Orange (Beckman Coulter). For flow cytometry, 300,000 cells were acquired on Cytoflex (Beckman Coulter). Data were analyzed using Flowjo software. The percentage of CD4^+ T cells that were positive for IFNγ and IL 4 were reported.

[2] = Mouse pharmacokinetics after oral dosing; type: in vivo
[3] = tested on: colitis in C.B-17 SCID mice; experiment: Mouse T cell adoptive transfer colitis model; type: in vivo
Procedure: To enable long-term dosing in animal studies, a CPI-818-formulated mouse diet (300 mg/kg/day), and a control diet, with macronutrient levels matching the common Teklad 2018 diet were created (Research Diets, Inc.). Adequate drug exposure was confirmed by standard LC-MS method in plasma samples. Female BALB/c mice (11-12 weeks old) and female Fox Chase C.B-17 severe combined immunodeficient (SCID) mice (6-7 weeks old) were purchased from Charles River Laboratories. […] A third group on control diet was treated weekly via intraperitoneal (IP) route with 0.5 mg/mouse of anti-IL-12 p40 (clone C17.8) (BioXcell BE0051). On study day 0, SCID mice were injected IP with 4×10^5 CD4^+CD45RB^hi splenic T cells from BALB/c mice. On study day 48, animals were sacrificed. Colons were harvested for measurements. The distal section was preserved in 10% neutral buffered formalin, embedded into paraffin blocks, and sent to HistoTox Labs, Inc. for histologic analyses. Therapeutic efficacy was based on body weights, colon weights, and colon lengths. This study was carried out at Bolder BioPATH, Inc. in accordance with the test facility standard operating procedures, the World Health Organization Quality Practices in Basic Biomedical Research guidelines, and in compliance with all state and federal regulations.
Each slide containing 3 cross sections of the distal colon from each animal was stained with hematoxylin and eosin (H&E), or with an anti-CD3 antibody, and evaluated by a board-certified veterinary pathologist blinded to treatment information. Histologic lesions in H&E-stained slides were scored separately for severity 0-5, where 0=absent, 1=minimal, 2=mild, 3=moderate, 4=marked, 5=severe. Anti-CD3-stained slides were scanned using an Aperio AT2 whole slide scanner. Exclusions were applied to remove debris and tissue artifacts from the analyzed area. An algorithm was applied to the samples using Visiopharm (VIS) image analysis software. A count-based thresholding method was utilized to determine positivity of each pixel on the slide. The average of the three colon samples per slide was taken to determine both the number of immunolabeled CD3 cells and the total area of the colon. The output images underwent a quality control check after analysis was complete. CD3-immunolabeled cell density was calculated per 10,000 μm^2 using the following formula: […]
The body weights over time between two groups of animals were compared using the two-way analysis of variance (2-way ANOVA) method. Organ weights or lengths were compared using a Student's unpaired, two-tailed, t-test with Welch's correction. All statistical analyses were performed using Prism Version 8.3.0 (GraphPad Software).

Sequence of Lck (P06239 whole entry): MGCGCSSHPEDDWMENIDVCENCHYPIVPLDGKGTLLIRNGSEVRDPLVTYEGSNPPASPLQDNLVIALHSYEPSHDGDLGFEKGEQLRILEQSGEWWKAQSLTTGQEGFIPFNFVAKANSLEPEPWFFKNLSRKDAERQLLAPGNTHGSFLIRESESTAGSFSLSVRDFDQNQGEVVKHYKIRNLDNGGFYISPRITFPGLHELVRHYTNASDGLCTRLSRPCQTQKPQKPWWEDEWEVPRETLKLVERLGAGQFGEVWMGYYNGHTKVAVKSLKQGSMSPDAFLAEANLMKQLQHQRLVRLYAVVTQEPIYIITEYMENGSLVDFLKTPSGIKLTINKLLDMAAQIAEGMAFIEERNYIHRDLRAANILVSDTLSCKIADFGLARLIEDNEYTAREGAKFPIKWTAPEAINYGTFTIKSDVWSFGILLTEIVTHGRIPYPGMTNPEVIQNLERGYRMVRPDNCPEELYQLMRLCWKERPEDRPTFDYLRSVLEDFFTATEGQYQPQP
Sequence of Cys442Ala ITK (Q08881 whole entry C442A): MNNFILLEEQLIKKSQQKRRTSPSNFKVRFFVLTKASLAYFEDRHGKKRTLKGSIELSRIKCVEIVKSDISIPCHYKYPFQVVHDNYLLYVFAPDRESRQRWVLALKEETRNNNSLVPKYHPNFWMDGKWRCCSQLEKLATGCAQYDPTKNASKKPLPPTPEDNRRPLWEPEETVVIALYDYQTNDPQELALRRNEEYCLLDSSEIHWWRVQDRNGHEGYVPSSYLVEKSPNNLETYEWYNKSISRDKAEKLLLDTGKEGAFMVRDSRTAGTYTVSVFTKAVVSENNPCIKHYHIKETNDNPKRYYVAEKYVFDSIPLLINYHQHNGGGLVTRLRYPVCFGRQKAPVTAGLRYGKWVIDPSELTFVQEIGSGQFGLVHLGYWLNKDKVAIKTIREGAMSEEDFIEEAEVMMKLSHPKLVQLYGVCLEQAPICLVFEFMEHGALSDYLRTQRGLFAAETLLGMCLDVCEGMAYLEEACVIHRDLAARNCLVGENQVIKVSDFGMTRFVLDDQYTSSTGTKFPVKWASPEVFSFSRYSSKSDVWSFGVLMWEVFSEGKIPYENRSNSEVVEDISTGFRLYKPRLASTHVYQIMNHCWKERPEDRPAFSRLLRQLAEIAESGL

## C=CC(=O)N1CCCN(C(=O)c2cc(Sc3cnc(NC(=O)C4CC4)s3)c(C)cc2OC)C[C@H]1C [CPI-818]
Cys442Ala ITK
  change of IC50 at Cys442Ala ITK compared to wild-type: > 100 fold
Lck
  remaining activity at 1 µM: 89%
[1]; 1 μM, average across samples
  effect on IFNγ production: 19%
[1]; 10 μM
  IFNγ-positivity: robustly inhibited
[1]; up to 1 μM, average
  effect on percentage of IFNγ+CD4+ T cells: < 20%
[2]; male, C57Bl/6, mouse, plasma, single 50 mg/kg PO
  Tmax: 0.5 h
[2]; male, C57Bl/6, mouse, plasma, single 50 mg/kg PO, read-out: half-life in circulation (converted)
  half-life: 2.4 h
[2]; mouse, in vivo, po
  oral bioavailability: orally bioavailable
[2]; single 50 mg/kg PO, over first 8 h
  decrease of plasma concentration: 10 fold
[3]; diet 300 mg/kg/day from one week before transfer
  protection from colitis (diarrhea, weight loss): protected from colitis
[3]; histology
  infiltration of CD3+ T cells in colon: blocked the infiltration of CD3^+ T cells; also recorded: prevented infiltration of CD3+ T cells
[3]; inflammation, mucosal necrosis, epithelial hyperplasia, submucosa edema
  severity of histologic lesions: significantly reduced the severity
[3]; necropsy 7 weeks post-transfer
  colon weights and lengths: within the ranges of naïve animals
